Laboratory results as given in patent publication US9179694B2, “Method and composition for enhancing milk production and milk component concentrations” (PURINA ANIMAL NUTRITION LLC, priority 2003, dated 2015).
Marks after values point to notes of the source that are not given here.

Assay: Total solids content of produced milk in sorbitol feeding trials
Assay type: in vivo, Holstein cows
Conditions: for Total Solids in Produced Milk: Pre-Partum Trial #1 (75/0/0 g/day in wk −3..−1/+1..+4/+5..+8)
Description: To determine the weight percent total solids, wet basis, in a sample, the actual weight of total solids is determined by analyzing the sample in accordance with Method #925.23 (33.2.09) of Official Methods of Analysis, Association of Official Analytical Chemists (AOAC) (16th Ed., 1995). The weight percent total solids, wet basis, is then calculated by dividing the actual weight of total solids by the actual weight of the sample. Each cow of each of the six different trials (Control Trial #1, Control Trial #2, Pre-Partum Trial #1, Pre-Partum Trial #2, Pre/Post Trial #1, and Pre/Post Trial #2) was milked three times daily and the weight of produced milk by each cow was recorded at each milking. The milk from each cow was sampled once per week (⅓ of the sample volume from each of the three milkings occurring on the weekly milk sampling day) and was analyzed for true protein, total fat, lactose, and total solids, as detailed in the property determination and characterization techniques presented above. Additionally, samples of blood were periodically obtained from each cow during the four trials (Control Trial 2, Pre-Partum Trial #2, Pre/Post Trial #1, and Pre/Post Trial #2) encompassed in Example Two and were analyzed for non-esterified fatty acid (NEFA) content as detailed in the property determination and characterization techniques presented above. No NEFA analysis was conducted on the cows employed in Control Trial #1 or Pre-Partum Trial #1 that are the subject of Example One. Example One includes Control Trial #1 and Pre-Partum Trial #1. Both primiparious cows and multiparious cows were included in Control Trial #1 and Pre-Partum Trial #1. Five primiparious cows and fifteen multiparious cows were included in Control Trial #1; likewise, five primiparious cows and fifteen multiparious cows were included in Pre-Partum Trial #1. All cows included in Control Trial #1 and Pre-Partum Trial #1 were Holsteins. Example Two includes Control Trial #2, Pre-Partum Trial #2, Pre/Post Trial #1, and Pre/Post Trial #2. Only multiparious, Holstein cows were included in Control Trial #2, […], Pre/Post Trial #1, and Pre/Post Trial #2. Eighteen multiparious cows were included in both Control Trial #2 and Pre-Partum Trial #2, while sixteen multiparious cows were included in Pre/Post Trial #1 and seventeen multiparious cows were included in Pre/Post Trial #2.

OC[C@@H](O)[C@@H](O)[C@H](O)[C@@H](O)CO [sorbitol]
Total Solids in Produced Milk (multiparious cows, weeks +1 through +8): 12.0^ab wt % | Total Solids in Produced Milk (primiparious cows, weeks +1 through +8): 13.0 wt % | increase in total solids concentration in the produced milk (Pre-Partum Trial #1 (75 g/day wk −3..−1 only) versus Control Trial #1, primiparious cows, weeks +1 through +8): 7.4% | Total Solids Content of Produced Milk (Pre-Partum Trial #2 (75/0/100 g/day in wk −3..−1/+1..+4/+5..+8), multiparious cows, week +1): 14.4^a weight % | Total Solids Content of Produced Milk (Pre-Partum Trial #2 (75/0/100 g/day in wk −3..−1/+1..+4/+5..+8), multiparious cows, week +2): 13.25 weight % | Total Solids Content of Produced Milk (Pre-Partum Trial #2 (75/0/100 g/day in wk −3..−1/+1..+4/+5..+8), multiparious cows, week +3): 12.54 weight % | Total Solids Content of Produced Milk (Pre-Partum Trial #2 (75/0/100 g/day in wk −3..−1/+1..+4/+5..+8), multiparious cows, week +4): 11.76^a weight % | Total Solids Content of Produced Milk (Pre-Partum Trial #2 (75/0/100 g/day in wk −3..−1/+1..+4/+5..+8), multiparious cows, week +5): 11.60^a weight % | Total Solids Content of Produced Milk (Pre-Partum Trial #2 (75/0/100 g/day in wk −3..−1/+1..+4/+5..+8), multiparious cows, week +6): 11.43^a weight % | Total Solids Content of Produced Milk (Pre-Partum Trial #2 (75/0/100 g/day in wk −3..−1/+1..+4/+5..+8), multiparious cows, week +7): 11.55 weight % | Total Solids Content of Produced Milk (Pre-Partum Trial #2 (75/0/100 g/day in wk −3..−1/+1..+4/+5..+8), multiparious cows, week +8): 11.45^ab weight % | Total Solids Content of Produced Milk (Pre-Partum Trial #2 (75/0/100 g/day in wk −3..−1/+1..+4/+5..+8), multiparious cows, weeks +1 through +4): 12.94^a weight % | Total Solids Content of Produced Milk (Pre-Partum Trial #2 (75/0/100 g/day in wk −3..−1/+1..+4/+5..+8), multiparious cows, weeks +1 through +8): 12.23^a weight % | Total Solids Content of Produced Milk (Pre-Partum Trial #2 (75/0/100 g/day in wk −3..−1/+1..+4/+5..+8), multiparious cows, weeks +5 through +8): 11.51^a weight % | Total Solids Content of Produced Milk (Pre/Post Trial #1 (150/125/100 g/day in wk −3..−1/+1..+4/+5..+8), multiparious cows, week +1): 15.3^ab weight % | Total Solids Content of Produced Milk (Pre/Post Trial #1 (150/125/100 g/day in wk −3..−1/+1..+4/+5..+8), multiparious cows, week +1, two-trial comparison with Control Trial #2 (Table 26)): 15.3 weight % | Total Solids Content of Produced Milk (Pre/Post Trial #1 (150/125/100 g/day in wk −3..−1/+1..+4/+5..+8), multiparious cows, week +2): 12.28 weight % | Total Solids Content of Produced Milk (Pre/Post Trial #1 (150/125/100 g/day in wk −3..−1/+1..+4/+5..+8), multiparious cows, week +2, two-trial comparison with Control Trial #2 (Table 26)): 13.28 weight % | Total Solids Content of Produced Milk (Pre/Post Trial #1 (150/125/100 g/day in wk −3..−1/+1..+4/+5..+8), multiparious cows, week +3): 12.84 weight % | Total Solids Content of Produced Milk (Pre/Post Trial #1 (150/125/100 g/day in wk −3..−1/+1..+4/+5..+8), multiparious cows, week +3, two-trial comparison with Control Trial #2 (Table 26)): 12.84 weight % | Total Solids Content of Produced Milk (Pre/Post Trial #1 (150/125/100 g/day in wk −3..−1/+1..+4/+5..+8), multiparious cows, week +4): 12.54^c weight % | Total Solids Content of Produced Milk (Pre/Post Trial #1 (150/125/100 g/day in wk −3..−1/+1..+4/+5..+8), multiparious cows, week +4, two-trial comparison with Control Trial #2 (Table 26)): 12.54 weight % | Total Solids Content of Produced Milk (Pre/Post Trial #1 (150/125/100 g/day in wk −3..−1/+1..+4/+5..+8), multiparious cows, week +5): 12.17^ab weight % | Total Solids Content of Produced Milk (Pre/Post Trial #1 (150/125/100 g/day in wk −3..−1/+1..+4/+5..+8), multiparious cows, week +5, two-trial comparison with Control Trial #2 (Table 26)): 12.17 weight % | Total Solids Content of Produced Milk (Pre/Post Trial #1 (150/125/100 g/day in wk −3..−1/+1..+4/+5..+8), multiparious cows, week +6): 12.08^b weight % | Total Solids Content of Produced Milk (Pre/Post Trial #1 (150/125/100 g/day in wk −3..−1/+1..+4/+5..+8), multiparious cows, week +6, two-trial comparison with Control Trial #2 (Table 26)): 12.08 weight % | Total Solids Content of Produced Milk (Pre/Post Trial #1 (150/125/100 g/day in wk −3..−1/+1..+4/+5..+8), multiparious cows, week +7): 11.71 weight % | Total Solids Content of Produced Milk (Pre/Post Trial #1 (150/125/100 g/day in wk −3..−1/+1..+4/+5..+8), multiparious cows, week +7, two-trial comparison with Control Trial #2 (Table 26)): 11.71 weight % | Total Solids Content of Produced Milk (Pre/Post Trial #1 (150/125/100 g/day in wk −3..−1/+1..+4/+5..+8), multiparious cows, week +8): 12.06^b weight % | Total Solids Content of Produced Milk (Pre/Post Trial #1 (150/125/100 g/day in wk −3..−1/+1..+4/+5..+8), multiparious cows, week +8, two-trial comparison with Control Trial #2 (Table 26)): 12.06 weight % | Total Solids Content of Produced Milk (Pre/Post Trial #1 (150/125/100 g/day in wk −3..−1/+1..+4/+5..+8), multiparious cows, weeks +1 through +4): 13.49^ab weight % | Total Solids Content of Produced Milk (Pre/Post Trial #1 (150/125/100 g/day in wk −3..−1/+1..+4/+5..+8), multiparious cows, weeks +1 through +4, two-trial comparison with Control Trial #2 (Table 26)): 13.49 weight % | Total Solids Content of Produced Milk (Pre/Post Trial #1 (150/125/100 g/day in wk −3..−1/+1..+4/+5..+8), multiparious cows, weeks +1 through +8): 12.76^b weight % | Total Solids Content of Produced Milk (Pre/Post Trial #1 (150/125/100 g/day in wk −3..−1/+1..+4/+5..+8), multiparious cows, weeks +1 through +8, two-trial comparison with Control Trial #2 (Table 26)): 12.76 weight % | Total Solids Content of Produced Milk (Pre/Post Trial #1 (150/125/100 g/day in wk −3..−1/+1..+4/+5..+8), multiparious cows, weeks +5 through +8): 12.02^b weight % | Total Solids Content of Produced Milk (Pre/Post Trial #1 (150/125/100 g/day in wk −3..−1/+1..+4/+5..+8), multiparious cows, weeks +5 through +8, two-trial comparison with Control Trial #2 (Table 26)): 12.02 weight % | increase in total solids concentration in milk (Pre/Post Trial #1 (150/125/100 g/day) versus Control Trial #2, multiparious cows, weeks +1 through +4 (Table 26)): more than 3.7% | greater total solids concentration in milk (Pre/Post Trial #1 (150/125/100 g/day) versus Control Trial #2, multiparious cows, weeks +1 through +8): 4.6% | increase in total solids concentration in milk (Pre/Post Trial #1 (150/125/100 g/day) versus Control Trial #2, multiparious cows, weeks +1 through +8 (Table 26)): ~4.6% | greater total solids concentration in milk (Pre/Post Trial #1 (150/125/100 g/day) versus Control Trial #2, multiparious cows, weeks +5 through +8): 5.2% | increase in total solids concentration in milk (Pre/Post Trial #1 (150/125/100 g/day) versus Control Trial #2, multiparious cows, weeks +5 through +8 (Table 26)): more than 5.2% | greater total solids concentration in milk (Pre/Post Trial #1 (150/125/100 g/day) versus Pre-Partum Trial #2 (75/0/100 g/day), multiparious cows, weeks +1 through +8): 4.3% | greater total solids concentration in milk (Pre/Post Trial #1 (150/125/100 g/day) versus Pre-Partum Trial #2 (75/0/100 g/day), multiparious cows, weeks +5 through +8): 4.4% | Total Solids Content of Produced Milk (Pre/Post Trial #2 (75/75/100 g/day in wk −3..−1/+1..+4/+5..+8), multiparious cows, week +1): 15.6^b weight % | Total Solids Content of Produced Milk (Pre/Post Trial #2 (75/75/100 g/day in wk −3..−1/+1..+4/+5..+8), multiparious cows, week +2): 13.61 weight % | Total Solids Content of Produced Milk (Pre/Post Trial #2 (75/75/100 g/day in wk −3..−1/+1..+4/+5..+8), multiparious cows, week +3): 12.92 weight % | Total Solids Content of Produced Milk (Pre/Post Trial #2 (75/75/100 g/day in wk −3..−1/+1..+4/+5..+8), multiparious cows, week +4): 12.43^bc weight % | Total Solids Content of Produced Milk (Pre/Post Trial #2 (75/75/100 g/day in wk −3..−1/+1..+4/+5..+8), multiparious cows, week +5): 12.38^b weight % | Total Solids Content of Produced Milk (Pre/Post Trial #2 (75/75/100 g/day in wk −3..−1/+1..+4/+5..+8), multiparious cows, week +6): 11.89^ab weight % | Total Solids Content of Produced Milk (Pre/Post Trial #2 (75/75/100 g/day in wk −3..−1/+1..+4/+5..+8), multiparious cows, week +7): 11.64 weight % | Total Solids Content of Produced Milk (Pre/Post Trial #2 (75/75/100 g/day in wk −3..−1/+1..+4/+5..+8), multiparious cows, week +8): 11.57^ab weight % | Total Solids Content of Produced Milk (Pre/Post Trial #2 (75/75/100 g/day in wk −3..−1/+1..+4/+5..+8), multiparious cows, weeks +1 through +4): 13.63^b weight % | Total Solids Content of Produced Milk (Pre/Post Trial #2 (75/75/100 g/day in wk −3..−1/+1..+4/+5..+8), multiparious cows, weeks +1 through +8): 12.73^b weight % | Total Solids Content of Produced Milk (Pre/Post Trial #2 (75/75/100 g/day in wk −3..−1/+1..+4/+5..+8), multiparious cows, weeks +5 through +8): 11.87^ab weight % | greater total solids concentration in milk (Pre/Post Trial #2 (75/75/100 g/day) versus Control Trial #2, multiparious cows, weeks +1 through +4): 4.8% | greater total solids concentration in milk (Pre/Post Trial #2 (75/75/100 g/day) versus Control Trial #2, multiparious cows, weeks +1 through +8): 4.3% | greater total solids concentration in milk (Pre/Post Trial #2 (75/75/100 g/day) versus Pre-Partum Trial #2 (75/0/100 g/day), multiparious cows, weeks +1 through +4): 5.3% | greater total solids concentration in milk (Pre/Post Trial #2 (75/75/100 g/day) versus Pre-Partum Trial #2 (75/0/100 g/day), multiparious cows, weeks +1 through +8): 4.1% | increase in total solids concentration in milk (average of means of Pre-Partum Trial #2, Pre/Post Trial #1 and Pre/Post Trial #2 versus Control Trial #2, multiparious cows, weeks +1 through +4): 2.7% | increase in total solids concentration in milk (average of means of Pre-Partum Trial #2, Pre/Post Trial #1 and Pre/Post Trial #2 versus Control Trial #2, multiparious cows, weeks +1 through +8): 1.1% | increase in total solids concentration in milk (average of means of Pre-Partum Trial #2, Pre/Post Trial #1 and Pre/Post Trial #2 versus Control Trial #2, multiparious cows, weeks +5 through +8): 3.3%
